Nine molecules from PubChem BioAssay (NCI) can be followed below.

“And” between values parts separate entries of the source, which are not always exact repeats. Equal values may be shown once.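 All cell lines were grown in 96-well plates and treated with compound for 48 hours. Here, GI50 denotes the concentration required for 50% inhibition of growth. TGI marks complete inhibition of growth.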 A value given as a limit tells only on which side of the number the result lay.

What all share (test): growth of human tumour cells (NCI), 48 h
In assay [1] the test system is HCT-15 colon.
Assay [2] has as its system SN12C renal.
For assay [3], the system named is MDA-MB-231 breast.
The subject of assay [4] is OVCAR-3 ovarian.
For assay [5], the system named is SF-539 CNS.
Assay [6] deals with 786-0 renal.
Assay [7] deals with NCI-H226 lung.
Assay [8] deals with SK-MEL-2 melanoma.
Assay [9] has as its system SK-MEL-5 melanoma.
Assay [10] relates to RXF 393 renal.

For the molecule `C/C=C(\C)C(=O)O[C@@H]1C(O)[C@H]2OC(COC(=O)CCC(=O)CCCCCC[C@H](CCCCC)O[C@@H]3OC(C)[C@H](OC(C)=O)C(O)[C@H]3O2)[C@H]1OC(=O)/C=C/c1ccccc1` (stereo not given in full), the GI50 in [1] was 0.034 µM; in [2], 0.0101 µM; in assay [3], < 0.01 µM; in assay [4], 0.0284 µM; in assay [5] it was < 0.01 µM; in [6], 0.028 µM. Also, the GI50 in assay [7] was 0.0643 µM; in [8] it was 0.322 µM; in assay [9] it was < 0.01 µM; in assay [10], < 0.01 µM. For the same molecule, the TGI in [1] was > 100 µM; in assay [2], 24.1 µM; in [3], < 0.0114 µM; in [4] it was 13.7 µM; in [5], 1.96 µM; in assay [6], 7.61 µM. Besides, the TGI in [7] was determined as 7.38 µM; in assay [8] it was 4.27 µM; in assay [10], 4.99 µM.

`CN(C)CCNC(=O)c1cccc2cc3ccccc3nc12`: the GI50 was 1.25 µM in assay [1]; 1.84 µM in assay [2]; 2.35 µM in assay [3]; 1.36 µM in assay [4]; 1.78 µM in assay [5]; 1.52 µM in assay [6]. Further, the GI50 in assay [7] was 0.961 µM; in assay [8] it was 2.27 µM; in assay [9], 1.25 µM; in [10], 1.42 µM. The TGI in assay [2] is > 19.9 µM; in assay [3], 9.65 µM; in assay [4] it was 4.22 µM; in assay [5], 8.21 µM; in [6], 8.64 µM; in assay [7], 3.85 µM. Also, the TGI is 4.34 µM in assay [8], 2.54 µM in assay [9] and 4.13 µM in assay [10].

As for `CCC(=O)OC1CCn2c1nc1c2C(=O)C(C)=C(N2CC2)C1=O` (stereo not given), the GI50 in assay [1] is 0.0204 µM; in assay [2], 0.0285 µM; in assay [4], 0.0296 µM; in [5], 0.0138 µM; in assay [6] it was 0.017 µM; in [7] it was 0.186 µM. For the same molecule, the GI50 in [8] was 0.038 µM; in assay [9], 0.165 µM; in assay [10] it was 0.0107 µM. Moreover, the TGI was 0.209 µM and 0.0527 µM in [1]; 0.119 µM and 0.333 µM in [2]; 3.32 µM in [3]; 0.0975 µM and 0.137 µM in assay [4]; 0.441 µM and 0.319 µM in assay [7]; 0.1 µM and 0.117 µM in [8]. The TGI in assay [9] is 0.0765 µM and 0.319 µM; in assay [10], 0.026 µM and 0.111 µM.

Turning to `O=C(O)CCC1COc2ccccc2O1` (stereo not given), the TGI in assay [1], in assay [2], in [3], in [4], in assay [5] and in assay [6] was > 10 µM throughout. Further, the TGI in assay [7], in [8], in assay [9] and in [10] was > 10 µM each time.

As to `NCCNCC(O)CO` (stereo not given), the TGI in assay [1], in [2], in assay [3], in assay [4], in assay [5] and in assay [6] was > 100 µM throughout. The TGI in [7], in assay [8], in [9] and in assay [10] was > 100 µM each time.

For the molecule `COC(=O)c1ccccc1NC(=O)C(=O)CC(=O)c1ccccc1NC1=CC(=O)C(=O)c2ccccc21`, the TGI in assay [1] stood at 34.1 µM; in [2] it was 15.1 µM; in assay [3], 23 µM; in assay [4], 12.3 µM; in [5] it was 46.2 µM; in [6], 30.8 µM. Also, the TGI in assay [7] was 49.7 µM; in assay [8], 30.5 µM; in [9], 14.2 µM; in [10], 57.5 µM.

Consider `O=C(Oc1ccc([N+](=O)[O-])cc1)N1CCN(Cc2cccc(Oc3ccccc3)c2)CC1`, for which the GI50 in assay [1] was > 100 µM; in assay [2] it was > 100 µM; in assay [3], > 100 µM; in assay [4], > 96.2 µM; in assay [5] it was > 100 µM; in assay [6] it was > 100 µM. Also, the GI50 in assay [7] was > 100 µM; in assay [8] it was > 67.1 µM; in assay [9] it was 18.5 µM; in assay [10] it was > 100 µM. For the same molecule, the TGI in assay [1], in [2], in assay [3], in [4], in assay [5] and in [6] was > 100 µM each time. The TGI in [7] is > 100 µM; in assay [8], > 100 µM; in assay [9] it was 58.7 µM; in assay [10] it was > 100 µM.

`Nc1nc2c(c3ncccc13)C(c1cccc(Cl)c1)Cc1ncccc1-2` (stereo not given): the GI50 in [1] is 1.22 µM; in assay [2], 5.93 µM; in assay [3], 4.19 µM; in assay [4], 1.11 µM; in [5] it was 1.96 µM; in [6], 3.99 µM. Moreover, the GI50 in assay [7] is 19.6 µM; in [8] it was 1.84 µM; in assay [9] it was 1.34 µM; in assay [10], 0.908 µM. The TGI in [1] came out at 20.6 µM; in [2], 44.5 µM; in [3] it was 23.7 µM; in assay [4], 4.88 µM; in [5], 7.25 µM; in [6] it was 26.5 µM. Moreover, the TGI in [7] turned out to be 43.2 µM; in [8], 15.4 µM; in assay [9] it was 14.7 µM; in assay [10] it was 4.9 µM.

With `N#C/C(=C\c1ccc(Br)cc1)n1nnc2cccc(F)c21`, the GI50 in [1] is 0.478 µM; in assay [2], 1.55 µM; in assay [3], 1.63 µM; in assay [4], 0.861 µM; in assay [5] it was 1.86 µM; in assay [6] it was 1.48 µM. Also, the GI50 is 1.57 µM in assay [7], 1.96 µM in assay [8], 1.41 µM in assay [9] and 1.08 µM in assay [10]. Also, the TGI worked out at 1.89 µM in [1]; 3.14 µM in assay [2]; 3.46 µM in assay [3]; 2.15 µM in [4]; 3.45 µM in [5]; 2.93 µM in [6]. The TGI in assay [7] amounted to 3.45 µM; in [8], 5.14 µM; in assay [9], 2.75 µM; in [10], 2.64 µM.
